The target of data set [1] is T1, talin head (residues 1-430) (Mus musculus, UniProt P26039).
T1 construct: talin rod R7R8 and talin head (residues 1-430) were measured; made in house
Put plainly: Fluorescent polarization (FP) binding assay, talin head. As to the method: (§1) To assess the binding affinities of S-TBS with talin, the Kd of TBS and S-TBS peptides with talin rod R7R8 and talin head (residues 1-430) were measured using fluorophore-labeled peptides and recombinantly expressed, purified talin proteins by FP assays. […] This gain of affinity may be attributed to the C8 staple as it stabilizes the helical structure of TBS, and the enhanced hydrophobic interaction between S-TBS and talin rod. The enhanced binding of S-TBS to talin further validates the design strategy of using stapled peptides as a potent competitive inhibitor.
(§2) Fluorescent Polarization: Mixtures were prepared of purified talin proteins at a series concentration (R7R8: 0.2 μM to 20 μM; THD/b3-THD: 5 μM to 100 μM), or buffer only, with 20 nM FITC-labeled S-TBS (New England Peptide) in a buffer containing 20 mM HEPES, pH 7.5, 100 mM NaCl, and 2 mM DTT. After five minutes of incubation, 20 μl of the reaction mix was added to individual wells of a 384-well assay plate (Corning) and then measured fluorescence polarization at room temperature using a plate reader. A […] as emission polarization filters. FP signals were normalized against buffer-only background and then fit to a single-site (saturating) binding model using SigmaPlot (Systat Software).

Data set [2] deals with HeLa cells. Put plainly: Cell toxicity assay, HeLa. The class given is cell-based. The following applies: 40 μM, treated one hour then washed away, viability at 24 and 48 hours. On the procedure:
(§3) The cell toxicity of the peptides was then examined. HEK, MCF-7, and HeLa were used. Cells were treated with S-TBS 40 μm for one hour. The S-TBS was then washed away and the viability measured at 24 and 48 hours. No impact on HEK, MCF-7, and HeLa cell growth was observed.

Data set [3] concerns CHO cell. Put plainly: Cell toxicity, CHO cell growth. The class given is cell-based.
In data set [4] the test system is integrin αIIbβ3. Put plainly: Integrin activation assay, wild-type talin head domain. The class given is cell-based. The following applies: CHO-A5 cells expressing GFP-tagged wild-type talin head domain; TBS 100 μM, S-TBS 10 and 100 μM, 30 minutes; PAC1 flow cytometry. As to the method:
(§4) Assessing integrin activation: CHO-A5 cells were transfected with GFP-tagged talin-head domain (residues 1-430, WT or W359A) and incubated for 24 hours at 37° C. The cells were subsequently treated with WT-TBS at 100 μM or Staple-TBS (at 10 and 100 μM) for 30 minutes at 37° C. and washed twice with PBS, harvested in trypsin-EDTA, and centrifuged at 2,000 rpm for 5 minutes. The cells were incubated in Tyrode's buffer (136.9 mM NaCl, 10 mM HEPES, 5.5 mM glucose, 11.9 mM NaHCO3, 2.7 mM KCl, 0.5 mM CaCl2), 1.5 mM MgCl2, and 0.4 mM NaH2PO4, pH 7.4) containing PAC1 antibody for 1 hour at 30° C. and then stained with Alexa 647 (goat anti-mouse IgM) for 30 minutes at RT. The cells were quantified with an LSR flow cytometer using 30,000 cells per measurement.
(§5) The effect of S-TBS on talin-induced activation of integrin αIIbβ3 was examined. CHO-A5 cells that stably express integrin αIIbβ3 were transfected with a green fluorescent protein-tagged talin head domain, treated with S-TBS or TBS, and then subjected flow cytometry analysis for integrin αIIbβ3 activity. […]
(§6) Integrin activation assays: CHO-A5 cells were transfected with talin-head domain, wild-type or W359A, and incubated for 24 hours at 37° C. […] The cells were quantified with a Beckton, Dickenson & Co. Biosciences LSR flow cytometer (660/20 filter, 640 nm laser) using 30,000 cells per measurement.
Background: In flow cytometry, cells or beads pass a laser one at a time.

Data set [5] concerns MCF-7 cells. Put plainly: Cell toxicity assay, MCF-7. The settings on record: 40 μM, treated one hour then washed away, viability at 24 and 48 hours. It is filed as cell-based. As to the method:
as §3

For data set [6], the system named is HEK-293 cells. The experiment in a line: Cell toxicity assay, HEK-293. The class given is cell-based. The following applies: 40 μM, treated one hour then washed away, viability at 24 and 48 hours. As to the method:
as §3

Data set [7] relates to Jurkat T-cell. Put plainly: Cell toxicity, Jurkat T-cell growth. The class given is cell-based.
Data set [8] concerns the target T2, talin rod R7R8 domains (Mus musculus, UniProt P26039).
T2 construct: talin rod R7R8 and talin head (residues 1-430) were measured using fluorophore-labeled peptides and recombinantly expressed, purified talin proteins; made in house
Put plainly: Fluorescent polarization (FP) binding assay, talin rod R7R8. The settings on record: S-TBS versus TBS, from FP Kd values. On the procedure:
as §1, §2

The test system of data set [9] is CHO-A5 cells. The experiment in a line: Cell permeability assay (flow cytometry uptake of fluorophore-labelled peptide). The class given is in vitro ADME. On the procedure: Assessing membrane permeability: CHO-A5 cells were treated with FAM-labelled WT-TBS (1, 10, and 50 μM), or with FITC-labelled stapled-TBS (1, 10, and 50 μM), and incubated for 30 minutes at 37° C. The cells were washed twice with phosphate-buffered saline (PBS), harvested in trypsin-EDTA, and centrifuged at 2,000 rpm for 5 minutes. The cells were resuspended in PBS and quantified with an LSR flow cytometer using 30,000 cells per measurement.
A common challenge for peptidomimetic drugs that target intracellular proteins is the poor cell membrane permeability. To assess the effect of the C8 staple on cell permeability, FITC-labeled S-TBS were incubated with CHO cells at various concentration and examined S-TBS uptake by flow cytometry. […] The assay was then performed using lower doses of peptides and quantified the signals for statistical analyses. […] In contrast, TBS requires a concentration of at least 5 μM for cell uptake (FIG. 3, Panel B).
Cell permeability assay: CHO-A5 cells were plated in 6-well dishes, and then treated with fluorophore labeled TBS or S-TBS peptides at indicated concentrations for 30 minutes at 37° C. The cells were then washed twice with phosphate-buffered saline (PBS), detached by adding a mixture of trypsin and […] (“trypsin-EDTA”) and harvested by spinning at 2,000 rpm for 5 minutes. The cells were resuspended in PBS and quantified with an LSR flow cytometer (525/50 filter, 488 nm laser) using 30,000 cells per measurement.

The subject of data set [10] is integrin αIIbβ3. The experiment in a line: Integrin activation assay, inactive talin head mutant THD-W359A. The class given is cell-based. The settings on record: CHO-A5 cells transfected with THD-W359A; TBS 100 μM, S-TBS 10 and 100 μM; PAC1 flow cytometry. As to the method: as §4, §5, §6

“Also recorded” adds a separate entry of the source. Bridge positions count the residues as written; N and C are the ends. Square brackets hold non-standard residues; d marks the D form. Peptide text beside a SMILES is read from it. S5 = C=CCCC[C@](C)(N)C(=O)O

Here are results for 1 molecule from US20240360186A1, “Treatment Of Integrin-Related Disorders With Stapled Peptides” (Institute For Cancer Research d/b/a The Research Institute …, priority 2021, published 2024).

As a reminder, the Kd is the free concentration of one partner at which half of the binding sites on the other are occupied at equilibrium, for simple one-to-one binding.

T2 sequence (P26039 1359-1659 limits assumed): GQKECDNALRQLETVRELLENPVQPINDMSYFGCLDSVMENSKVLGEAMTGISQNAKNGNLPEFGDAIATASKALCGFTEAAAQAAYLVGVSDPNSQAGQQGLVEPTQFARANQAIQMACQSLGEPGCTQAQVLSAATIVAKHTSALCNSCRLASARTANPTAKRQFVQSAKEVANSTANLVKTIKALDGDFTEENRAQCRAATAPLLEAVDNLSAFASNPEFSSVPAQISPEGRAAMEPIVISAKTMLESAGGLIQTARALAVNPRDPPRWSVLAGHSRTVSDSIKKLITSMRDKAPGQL

`CC[C@H](C)[C@H](NC(=O)[C@H](CC(=O)O)NC(=O)[C@H](CCC(=O)O)NC(=O)[C@@H](N)CC(N)=O)C(=O)N[C@@H](CC(=O)O)C(=O)N[C@@H](CCC(N)=O)C(=O)N[C@@H](CCSC)C(=O)N[C@@H](Cc1ccccc1)C(=O)N[C@@H](CO)C(=O)N[C@H](C(=O)N[C@@H](CC(C)C)C(=O)N[C@@H](CC(C)C)C(=O)NCC(=O)N[C@@H](CCC(=O)O)C(=O)N[C@@]1(C)CCCC=CCCC[C@@](C)(C(=O)N[C@@H](CCC(N)=O)C(=O)N[C@@H](CO)C(=O)O)NC(=O)[C@H](CC(C)C)NC(=O)[C@H](CC(C)C)NC(=O)[C@H](CC(=O)O)NC1=O)[C@@H](C)O` [S-TBS, (Stp(15,19))H2N-NEDIDQMFSTLLGE(S5)DLL(S5)QS-OH] (H-NEDIDQMFSTLLGE[S5]DLL[S5]QS-OH; staple 15-19): in [1] (FP assay, fluorophore-labeled peptide, purified recombinant talin head (residues 1-430), read-out: Kd, talin head domain), the Kd was determined as 30.3 ± 4.8 µM. Also, the “fold stronger binding to talin head than TBS” value in data set [1] (S-TBS versus TBS, from FP Kd values) worked out at 3.5 fold. In [2], the “cell toxicity (viability / cell growth), HeLa” value is “No impact; also recorded: minimal cell toxicity”. Further, the “impact on CHO cell growth” value in data set [3] is reported as “no impact”. In addition, the “integrin αIIbβ3 activity (talin-induced activation)” value in data set [4] is on record as “significantly suppresses integrin αIIbβ3 activity in a dose-dependent manner”. Further, the “cell toxicity (viability / cell growth), MCF-7” value in data set [5] is recorded as “No impact; also recorded: minimal cell toxicity”. In addition, in [6], the “cell toxicity (viability / cell growth), HEK” value was “No impact; also recorded: minimal cell toxicity”. For the same molecule, the “impact on Jurkat T-cell growth” value in data set [7] is recorded as “no impact”. Moreover, in [8], the “fold stronger binding to R7R8 than TBS” value was 6 fold. The “fluorescence signal of treated cells (peptide uptake) compared with fluorophore-labelled TBS” value in [9] (CHO cells, 1, 10 and 50 μM, 30 minutes at 37° C., FITC-labeled S-TBS) is “significantly stronger signal”. The “concentration giving significant cell uptake” value in [9] (CHO-A5 cells, lower doses, flow cytometry permeability index, fluorophore-labelled peptides) amounted to 500 nM. The “integrin αIIbβ3 activity with inactive talin head THD-W359A” value in data set [10] was “No inhibitory effect”.
